Measured values from ChEMBL document CHEMBL4428125, “8-Substituted 1,3-dimethyltetrahydropyrazino[2,1-f]purinediones: Water-soluble adenosine receptor antagonists and monoamine oxidase B inhibitors” (Bioorg Med Chem, 2016).
In brackets after ≈: the same amount, converted by molar mass.

How the values were obtained:
[1] = target: T1, Adenosine receptor A2b (Homo sapiens, UniProt P29275); test: Displacement of [3H]PSB-603 from human A2B receptor expressed in CHO cell membrane; assay type: cell membranes
T1 sequence (P29275 whole entry): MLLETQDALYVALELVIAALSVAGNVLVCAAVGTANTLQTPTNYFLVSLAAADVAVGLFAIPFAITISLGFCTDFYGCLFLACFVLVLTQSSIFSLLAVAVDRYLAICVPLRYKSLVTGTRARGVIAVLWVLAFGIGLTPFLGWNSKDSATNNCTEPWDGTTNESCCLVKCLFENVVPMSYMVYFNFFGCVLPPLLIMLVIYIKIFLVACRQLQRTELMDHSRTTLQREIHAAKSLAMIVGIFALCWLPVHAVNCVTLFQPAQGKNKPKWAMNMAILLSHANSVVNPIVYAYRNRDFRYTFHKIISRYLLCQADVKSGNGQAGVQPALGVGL

[2] = Thermodynamic solubility of the compound at pH 7.4; assay type: physicochemical; settings: buffer, read-out: Therm_solubility
[3] = target: T2, Amine oxidase [flavin-containing] A (Homo sapiens, UniProt P21397); test: Inhibition of recombinant human MAO-A expressed in baculovirus infected BTI insect cells preincubated for 30 mins followed by addition of p-tyramine as substrate measured over 45 mins by Amplex Red MAO assay
T2 sequence (P21397 whole entry): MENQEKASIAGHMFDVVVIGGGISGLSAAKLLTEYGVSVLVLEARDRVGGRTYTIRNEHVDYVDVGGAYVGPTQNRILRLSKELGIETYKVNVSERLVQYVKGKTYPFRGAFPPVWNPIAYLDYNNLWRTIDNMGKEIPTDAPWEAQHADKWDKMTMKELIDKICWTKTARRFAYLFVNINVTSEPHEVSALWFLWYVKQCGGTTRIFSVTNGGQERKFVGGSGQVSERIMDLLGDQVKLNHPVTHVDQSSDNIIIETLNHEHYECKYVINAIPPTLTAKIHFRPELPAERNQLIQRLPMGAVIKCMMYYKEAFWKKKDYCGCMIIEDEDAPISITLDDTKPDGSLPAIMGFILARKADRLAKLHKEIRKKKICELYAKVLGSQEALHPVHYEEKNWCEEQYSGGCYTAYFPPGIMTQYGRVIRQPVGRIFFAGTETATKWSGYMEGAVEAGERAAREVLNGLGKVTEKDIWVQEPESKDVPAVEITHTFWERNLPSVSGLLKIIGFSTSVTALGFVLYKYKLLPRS

[4] = target: T3, Adenosine receptor A3 (Homo sapiens, UniProt P0DMS8); test: Displacement of [3H]PSB-11 from human A3 receptor expressed in CHO cell membrane by liquid scintillation counting method relative to control; assay type: cell membranes
T3 sequence (P0DMS8 whole entry): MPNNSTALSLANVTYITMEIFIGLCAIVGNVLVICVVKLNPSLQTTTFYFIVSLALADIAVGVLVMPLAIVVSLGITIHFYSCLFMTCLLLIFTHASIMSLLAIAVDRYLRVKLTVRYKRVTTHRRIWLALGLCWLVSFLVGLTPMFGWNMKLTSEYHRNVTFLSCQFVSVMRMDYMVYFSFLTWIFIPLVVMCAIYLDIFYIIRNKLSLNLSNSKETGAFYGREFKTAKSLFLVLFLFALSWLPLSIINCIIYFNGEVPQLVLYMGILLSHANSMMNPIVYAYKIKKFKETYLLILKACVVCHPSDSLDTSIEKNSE

[5] = target: T4, Amine oxidase [flavin-containing] B (Homo sapiens, UniProt P27338); test: Inhibition of recombinant human MAO-B expressed in baculovirus infected BTI insect cells preincubated for 30 mins followed by addition of p-tyramine as substrate measured over 45 mins by Amplex Red MAO assay
T4 sequence (P27338 whole entry): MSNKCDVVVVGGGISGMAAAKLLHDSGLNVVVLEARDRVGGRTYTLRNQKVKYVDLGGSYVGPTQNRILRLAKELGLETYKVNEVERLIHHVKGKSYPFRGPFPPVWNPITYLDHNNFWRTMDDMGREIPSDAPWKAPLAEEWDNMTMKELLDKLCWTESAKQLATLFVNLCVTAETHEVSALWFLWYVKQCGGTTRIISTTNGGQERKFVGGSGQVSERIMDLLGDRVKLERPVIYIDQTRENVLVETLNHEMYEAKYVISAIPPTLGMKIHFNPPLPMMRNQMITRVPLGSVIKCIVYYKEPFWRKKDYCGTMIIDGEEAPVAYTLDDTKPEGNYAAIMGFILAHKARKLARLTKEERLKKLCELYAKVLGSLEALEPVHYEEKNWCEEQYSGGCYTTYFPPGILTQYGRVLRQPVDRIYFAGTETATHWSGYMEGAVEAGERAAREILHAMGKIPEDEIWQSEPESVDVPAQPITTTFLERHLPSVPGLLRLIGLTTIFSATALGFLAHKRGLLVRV

[6] = target: T2, Amine oxidase [flavin-containing] A; test: Inhibition of recombinant human MAO-A expressed in baculovirus infected BTI insect cells at 10 uM preincubated for 30 mins followed by addition of p-tyramine as substrate measured over 45 mins by Amplex Red MAO assay relative to control; settings: 0.75 h
[7] = target: T5, Adenosine receptor A1 (Rattus norvegicus, UniProt P25099); test: Displacement of [3H]CCPA from A1 receptor in rat brain cortex membranes by liquid scintillation counting method; assay type: cell membranes
T5 sequence (P25099 whole entry): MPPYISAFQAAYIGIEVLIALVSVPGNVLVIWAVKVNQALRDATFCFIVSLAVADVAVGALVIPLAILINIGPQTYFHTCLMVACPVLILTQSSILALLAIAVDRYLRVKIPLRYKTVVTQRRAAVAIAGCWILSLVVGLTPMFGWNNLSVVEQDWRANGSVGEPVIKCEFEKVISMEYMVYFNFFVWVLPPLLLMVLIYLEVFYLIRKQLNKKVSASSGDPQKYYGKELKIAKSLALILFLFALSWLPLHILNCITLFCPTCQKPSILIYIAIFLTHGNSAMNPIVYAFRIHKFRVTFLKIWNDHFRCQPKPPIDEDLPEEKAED

[8] = target: T6, Adenosine receptor A1 (Rattus norvegicus) (UniProt P25099); test: Displacement of [3H]CCPA from A1 receptor in rat brain cortex membranes at 1.5 uM by liquid scintillation counting method; assay type: cell membranes
T6 sequence (whole entry): T5 sequence (P25099 whole entry)

[9] = target: Adenosine receptor A2a (Rattus norvegicus, UniProt P30543); test: Displacement of [3H]MSX from A2A receptor in rat brain striatum membranes measured after 30 mins by liquid scintillation counting method; assay type: cell membranes
Sequence of Adenosine receptor A2a (P30543 whole entry): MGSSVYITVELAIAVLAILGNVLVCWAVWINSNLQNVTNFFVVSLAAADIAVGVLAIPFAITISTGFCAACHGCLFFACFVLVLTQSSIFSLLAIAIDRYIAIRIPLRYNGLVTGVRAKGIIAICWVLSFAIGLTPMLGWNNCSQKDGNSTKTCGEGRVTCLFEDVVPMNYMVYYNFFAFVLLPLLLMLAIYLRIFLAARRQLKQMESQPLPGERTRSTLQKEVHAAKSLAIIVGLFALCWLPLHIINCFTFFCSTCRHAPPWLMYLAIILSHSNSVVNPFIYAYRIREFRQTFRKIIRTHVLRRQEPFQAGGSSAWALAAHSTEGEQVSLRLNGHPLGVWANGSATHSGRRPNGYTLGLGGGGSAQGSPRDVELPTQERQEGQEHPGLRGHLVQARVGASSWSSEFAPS

[10] = target: T7, Adenosine receptor A3 (Homo sapiens) (UniProt P0DMS8); test: Displacement of [3H]PSB-11 from human A3 receptor expressed in CHO cell membrane at 10 uM by liquid scintillation counting method relative to control relative to control; assay type: cell membranes
T7 sequence (whole entry): T3 sequence (P0DMS8 whole entry)

[11] = target: T8, Adenosine receptor A2b (Homo sapiens) (UniProt P29275); test: Displacement of [3H]PSB-603 from human A2B receptor expressed in CHO cell membrane at 0.3 uM relative to control; assay type: cell membranes
T8 sequence (whole entry): T1 sequence (P29275 whole entry)

[12] = target: T4, Amine oxidase [flavin-containing] B; test: Inhibition of recombinant human MAO-B expressed in baculovirus infected BTI insect cells at 10 uM preincubated for 30 mins followed by addition of p-tyramine as substrate measured over 45 mins by Amplex Red MAO assay relative to control; settings: 0.75 h
[13] = target: T8, Adenosine receptor A2b (Homo sapiens); test: Displacement of [3H]PSB-603 from human A2B receptor expressed in CHO cell membrane at 1 uM relative to control; assay type: cell membranes
[14] = target: Adenosine receptor A2a (Rattus norvegicus) (UniProt P30543); test: Displacement of [3H]MSX from A2A receptor in rat brain striatum membranes at 1 uM measured after 30 mins by liquid scintillation counting method relative to control; assay type: cell membranes
Sequence of Adenosine receptor A2a (Rattus norvegicus) (P30543 whole entry): as above

[15] = Thermodynamic solubility of the compound at pH 4; assay type: physicochemical; settings: buffer, read-out: Therm_solubility
[16] = Thermodynamic solubility of the compound at pH 1; assay type: physicochemical; settings: buffer, read-out: Therm_solubility
[17] = target: T9, Adenosine receptor A1 (Homo sapiens, UniProt P30542); test: Displacement of [3H]CCPA from human A1 receptor expressed in CHO cell membrane by liquid scintillation counting method; assay type: cell membranes
T9 sequence (P30542 whole entry): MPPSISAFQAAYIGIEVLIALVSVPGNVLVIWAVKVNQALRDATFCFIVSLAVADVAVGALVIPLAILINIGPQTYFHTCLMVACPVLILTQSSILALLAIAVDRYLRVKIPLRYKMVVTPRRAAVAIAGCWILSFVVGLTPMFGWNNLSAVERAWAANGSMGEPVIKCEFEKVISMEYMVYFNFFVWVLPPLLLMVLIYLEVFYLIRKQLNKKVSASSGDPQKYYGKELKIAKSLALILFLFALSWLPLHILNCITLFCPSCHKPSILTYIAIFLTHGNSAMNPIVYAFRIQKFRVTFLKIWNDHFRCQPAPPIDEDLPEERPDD

Row | Structure (SMILES) | Ki [1] [µM] | solubility thermodynamic [2] [mg/mL] | IC50 [3] [µM] | Ki [4] [µM] | IC50 [5] [µM] | inhibition at 10 µM [6] [%] | Ki [7] [µM] | Activity [8] [%] | Ki [9] [µM] | Activity [10] [%] | Activity [11] [%] | inhibition at 10 µM [12] [%] | Activity [13] [%] | Activity [14] [%] | solubility thermodynamic [15] [mg/mL] | solubility thermodynamic [16] [mg/mL] | Ki [17] [µM]
1 | Cn1c(=O)c2c(nc3n2CCN(CCCc2ccccc2)C3)n(C)c1=O | > 0.3 | 0.08 (≈ 226 µM) | > 10 | > 10 | > 10 | 9 | > 1.5 | 12 | 1.84 | 20 | 5 | 14 | – | – | – | – | –
2 | Cn1c(=O)c2c(nc3n2CCN(CCc2ccccc2F)C3)n(C)c1=O | > 0.3 | – | – | > 10 | – | – | > 1.5 | 24 | 5.63 | 40 | 2 | 65 | – | – | – | – | –
3 | Cn1c(=O)c2c(nc3n2CCN(CCn2cccc2)C3)n(C)c1=O | > 1 | 1.2 (≈ 3650 µM) | > 10 | > 10 | > 10 | 14 | > 1.5 | 7 | > 1 | 37 | – | 19 | 8 | 8 | 1.5 (≈ 4570 µM) | > 1.5 | –
4 | Cn1c(=O)c2c(nc3n2CCN(C2CCc4ccccc42)C3)n(C)c1=O (racemic) | > 0.3 | < 0.0005 | – | > 10 | 2.13 | – | > 1.5 | 32 | 4.21 | 45 | 10 | – | – | – | 0.001 (≈ 2.85 µM) | 1 (≈ 2850 µM) | –
5 | Cn1c(=O)c2c(nc3n2CCN(CCc2cccs2)C3)n(C)c1=O | > 0.3 | – | > 10 | > 10 | > 10 | 5 | > 1.5 | 15 | 1.59 | 24 | 17 | 21 | – | – | – | – | –
6 | Cn1c(=O)c2c(nc3n2CCN(CCc2cc(C(F)(F)F)ccc2F)C3)n(C)c1=O | > 0.3 | < 0.0005 | – | > 10 | – | – | > 1.5 | 4 | > 1 | 14 | 13 | 58 | – | 25 | < 0.0005 | 0.4 (≈ 940 µM) | –
7 | Cn1c(=O)c2c(nc3n2CCN([C@H]2CCc4ccccc42)C3)n(C)c1=O | > 0.3 | – | – | > 10 | > 10 | – | > 1.5 | 29 | 2.48 | 33 | 11 | 22 | – | – | – | – | –
8 | Cn1c(=O)c2c(nc3n2CCN(CCc2ccc(Cl)cc2C(F)(F)F)C3)n(C)c1=O | > 1 | – | – | > 10 | 0.425 | – | 0.138 | – | 2.91 | 25 | – | – | 26 | – | – | – | 0.553
9 | Cn1c(=O)c2c(nc3n2CCN(CCc2cccc(Br)c2)C3)n(C)c1=O | > 0.3 | < 0.0005 | – | > 10 | 3.65 | – | > 1.5 | 26 | 2.12 | 42 | 29 | – | – | – | < 0.0005 | 0.7 (≈ 1670 µM) | –
10 | Cn1c(=O)c2c(nc3n2CCN(CCc2cccc(F)c2)C3)n(C)c1=O | > 0.3 | – | > 10 | > 10 | > 10 | 12 | > 1.5 | 6 | 1.5 | 16 | 8 | 35 | – | – | – | – | –
11 | Cn1c(=O)c2c(nc3n2CCN(CCc2ccc(Cl)cc2Cl)C3)n(C)c1=O | > 1 | – | > 10 | 30.9 | 2.45 | 15 | 0.416 | – | 2.25 | – | – | – | 24 | – | – | – | 3.52
12 | Cn1c(=O)c2c(nc3n2CCN(CCOc2cccc(F)c2)C3)n(C)c1=O | > 1 | < 0.0005 | – | > 10 | > 10 | – | > 1.5 | 8 | > 1 | 42 | – | 22 | 11 | 31 | < 0.0005 | > 1.5 | –
13 | Cn1c(=O)c2c(nc3n2CCN(C2CCN(Cc4ccccc4)CC2)C3)n(C)c1=O | > 1 | 0.3 (≈ 734 µM) | – | > 10 | > 10 | – | > 1.5 | 7 | > 1 | 10 | – | 2 | 17 | 5 | > 1.5 | > 1.5 | –
